Measurements reported in publication PMC7875911 (Frontiers in Pharmacology, 2021).
Where two headings read alike, the source gives them in different places. No end group written: not given here.

Experiments:
[1] = tested on: HVA I Ca in small-diameter IB4 ^− DRG neurons; assay: cells
Procedure: Spinal level L3–L5 DRG were removed and placed in ice-cold HEPES-buffered saline (HBS) composed of (in mM): 154 NaCl, 2.5 KCl, 1.8 CaCl2, 1.5 MgCl2, 10 HEPES, and 10 glucose (pH 7.4, 330 ± 5 mOsm). Iridectomy scissors were utilized to cut up ganglia before incubation at 37°C for 15 min in oxygenated HBS containing 5 mg ml^−1 collagenase type 2 (Worthington Biochemical Corp, Lakewood, NJ, United States) followed by 25 min in oxygenated HBS containing 1 mg ml^−1 papain (Worthington Biochemical Corp). […] After enzyme treatment, ganglia were placed in 3 ml of HBS following two room temperature HBS washes. Ganglia were then triturated through fire-polished Pasteur pipettes with decreasing bores to extract cells. Finally, the cells mixed in HBS were plated onto surface modified culture dishes (Corning Primaria™ easy grip). […] DRG cells were pre-treated with 1 μg ml^−1 Alexa Fluor 488-conjugated Bandeiraea simplicifolia IB4 (Invitrogen) for 5 min at room temperature and washed with HBS for 5 min before fluorescence was examined on the inverted microscope (Olympus, IX50) used for patch clamp recordings.
Cell size was determined from an eyepiece graticule. Whole-cell electrophysiology was conducted at room temperature (22–24°C) in culture dishes perfused with room temperature HBS. The intracellular pipette solution contained (mM): 120 CsCl, 10 HEPES, 10 EGTA, 2 CaCl2, 5 MgATP, 5 Na2GTP, 5 NaCl; pH 7.3 (CsOH); 285 ± 5 mos mol l^−1.
An EPC-9 patch-clamp amplifier and corresponding PULSE software from HEKA Electronik (Lambrecht/Pfalz, Germany) were used to make recordings. Currents were sampled at 50 kHz and recorded on a hard disk. Borosilicate glass from AM Systems, Everett, WA, United States were used for patch pipettes. The input resistance of the pipettes ranged from 2 to 4 MΩ. […] A built-in procedure of the HEKA amplifier compensated for the capacitive transient currents. A −P/6 protocol was utilized to subtract leak current online. I Ca was generated with the recording protocol which included a depolarization from a holding potential of −80 mV to 0 mV for 10 ms every 30 s. I Na was generated through a recording protocol which included a step depolarization from a holding potential of −80 mV to 0 mV for 10 ms at a frequency of 0.1 Hz. Cells were perfused with the test compound via a pressure driven perfusion system (AutoMate Scientific, United States).
All data analysis and graphs were generated in OriginPro (Origin Lab Corporation, United States). […] Activation and SSI curves were fit by the modified Boltzmann equation: I or G=1/(1+exp(Vm−V0.5/ka)) Where I is the current or G is the conductance, Vm is the pre-pulse potential, V 0.5 is the half-maximal activation potential and ka is the slope factor.
Statistical significance (p < 0.05) was determined using unpaired Student’s t-test or 1-way ANOVA followed by a Tukey multiple comparison. All data is presented as mean ± SEM (n), where n is individual cells.

Nav1.7 = details: cited from earlier work
Source text: Loss-of-function mutation of the SCN9A gene that codes for Nav1.7 leads to congenital insensitivity to pain ([Cox et al., 2006]), whereas SCN9A gain-of-function mutations causes paroxysmal extreme pain disorder and primary erythromelalgia ([Dib-Hajj et al., 2008]). […] Homology of VGIC voltage sensing domains, and particularly those of Nav channels, is at the crux of the development of genuinely selective Nav1.7 modulators ([Kingwell, 2019]). Given the VSD functional importance in neuronal VGICs and their structural homology, it is not surprising that VDPs target related channel families. […] Mammalian Nav and Cav α-subunits are structurally homologous but differ in their gating mechanisms ([Kubota et al., 2017]).

animal pain models = details: cited from earlier work
Source text: […]. Nav channels are structurally related to voltage-gated calcium (Cav) channels, Cav1 and Cav2. […] […].

[2] = tested on: voltage-gated ion channels (VGICs); details: cited from earlier work; for inhibition of Nav and Cav channels (in words): Chuang et al., Yamamoto and Sakashita, Middleton et al., Sidach and Mintz, Xiao et al., 2005
Nav1.2 and Nav1.5 = details: ref Chuang et al., 1998, Olamendi-Portugal et al., 2002, Sidach and Mintz; cited from earlier work
Source text: (§1) Mammalian Nav and Cav α-subunits are structurally homologous but differ in their gating mechanisms ([Kubota et al., 2017]).

[3] = tested on: T-type and L-type Cav channels; details: ref Chuang et al., 1998, Olamendi-Portugal et al., 2002, Sidach and Mintz; cited from earlier work
Source text: as §1

P-type calcium channels = details: ref Chuang et al., 1998, Olamendi-Portugal et al., 2002, Sidach and Mintz; cited from earlier work
Source text: as §1

N-type Cav channel = details: ref Chuang et al., 1998, Olamendi-Portugal et al., 2002, Sidach and Mintz; cited from earlier work
Source text: as §1

[4] = ref Swartz and MacKinnon, 1995, 1998, Li-Smerin and Swartz, 2002, Bosmans et al., 2008, Bladen et al., 2014
[5] = ref Kuenzi and Dale, 1996, Caterina et al., 1997, McArthur et al., 2019

C=CCN1CC[C@]23c4c5ccc(O)c4O[C@H]2C(=O)CC[C@@]3(O)[C@H]1C5 [naloxone, reference compound]
inhibition at 1 µM ([1]; Rattus norvegicus, DRG neuron, read-out: inhibition of I Ca): 1.68 ± 0.61% | effect on Nav1.7 currents (in words) (Nav1.7): did not alter Nav1.7 currents

CN1CC[C@]23c4c5ccc(O)c4O[C@H]2[C@@H](O)C=C[C@H]3[C@H]1C5 [morphine]
antinociceptive effect in the presence of Cav1 and Cav2.2 channel inhibitors (in words) (animal pain models; in vivo): enhanced

NC1=N[C@H](O)[C@H]2[C@H]3O[C@]4(O)O[C@@H]([C@@H](O)[C@@]2(N1)[C@@H]4O)[C@]3(O)CO [tetrodotoxin]
channel families acted on [2]: Nav/Cav

COc1ccc2c3c1O[C@H]1C(=O)CC[C@@]4(O)[C@@H](C2)N(C)CC[C@]314 [oxycodone, reference compound]
effect on Nav1.7 currents (in words) (Nav1.7; opioid receptor modulators, ref Mueller et al., 2019): did not alter Nav1.7 currents

ProTxI: voltage-sensing domain (VSD) gating modifier toxin (ECRYWLGGCSAGQTCCKHLVCSRRHGWCVWDGTFS; ends and bridges not checked; cysteine pairing not given here; UniProt P83480 1-35, looked up)
channel families acted on ([2]; ref Middleton et al., 2002, Bosmans et al., 2008, Bladen et al., 2014, Gui et al.): Nav/Kv/Cav/TRPA1 | inhibition of Nav and Cav channels (in words) [2, 4]: inhibit both Nav and Cav channels

Oc1cc2c(cc1O)CN(C(=S)NCCc1ccc(Cl)cc1)CCC2 [capsazepine]
channel families acted on [2, 5]: TRPV1/Kv/Cav

Cn1nccc1-c1ccccc1Oc1ccc(S(=O)(=O)Nc2nccs2)cc1C#N [PF-04856264]
effect in rodent models of acute nociception or inflammatory pain (in words) (animal pain models; small molecule, ref Deuis et al., 2017): ineffective

[D-Ala^2, N-MePhe^4, Gly-ol]-Enkephalin [DAMGO, reference compound]
inhibition of HVA I Ca ([1]; 100 nM DAMGO applied alone, small IB4− rat DRG neurons, mean ± SEM, n = 6): 6.49 ± 1.07% | antinociceptive effect in the presence of Cav1 and Cav2.2 channel inhibitors (in words) (animal pain models; ref Contreras et al., 1988, Barro et al., 1995): enhanced

ProTxII
channel families acted on ([2]; ref Middleton et al., 2002, Bladen et al., 2014): Nav/Cav | inhibition of Nav and Cav channels (in words) [2, 4]: inhibit both Nav and Cav channels | effect in rodent models of acute nociception or inflammatory pain (in words) (animal pain models; ref Schmalhofer et al., 2008): ineffective

COc1cc(CNC(=O)CCCC/C=C/C(C)C)ccc1O [capsaicin]
channel families acted on [2, 5]: TRPV1/Kv/Cav

Hanatoxin
inhibition of Nav and Cav channels (in words) [2, 4]: inhibit both Nav and Cav channels | channel families acted on ([2]; ref Swartz and MacKinnon, 1995, Li-Smerin and Swartz, 1998, Bosmans et al., 2008): Kv/Nav/Cav

B1: Kurtoxin: scorpion peptide, gating modifier toxin (peptide, UniProt P58910 1-63, looked up)
Kurtoxin: KIDGYPVDYWNCKRICWYNNKYCNDLCKGLKADSGYCWGWTLSCYCQGLPDNARIKRSGRCRA
modifications: ends and bridges not checked
effect on inactivation of Nav1.2 and Nav1.5 (in words) (Nav1.2 and Nav1.5): slows inactivation | effect on deactivation (in words) [3]: accelerates deactivation | effect on deactivation (in words) (P-type calcium channels): slows deactivation | effect on N-type Cav channel kinetics (in words) (N-type Cav channel): little to no alteration | channel families acted on ([2]; ref Chuang et al., 1998): Nav/Cav | inhibition of Nav and Cav channels (in words) [2, 4]: inhibit both Nav and Cav channels
